This note sets out measurements from publication PMC4648050, “Discovery of Inhibitors of Trypanosoma brucei by Phenotypic Screening of a Focused Protein Kinase Library” (Chemmedchem, 2015).

Where two headings read alike, the source gives them in different places.

The nature of series [1]: Plasma protein binding (equilibrium dialysis). It is filed as in vitro ADME. To be noted: mouse plasma. In short, it runs like this:
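Female CD1 mouse plasma spiked with compound at 10 μg g^-1, dialysed against isotonic buffer through 12-14 kDa membranes for 5 h at ∼37 °C with shaking, n=6. Both sides quantified by UPLC-MS/MS after MeCN extraction. Unbound fraction taken as the buffer-to-plasma peak area ratio.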
Background: In equilibrium dialysis free small molecules cross a membrane that holds back macromolecules.

Series [2] can be described thus: In vivo pharmacokinetics in mice. Further details: species or system female NMRI mice. To be noted: for Tmax: female, NMRI; for Tmax / Cmax / half-life / AUC(0-t): mouse, whole blood, blood; for AUC(0-t): read-out: AUC(0–8) (converted). On the procedure: In vivo pharmacokinetics in mice: Compounds 1 and 28 were dosed orally by gavage as a solution at 5 mg free base per kg or 20 mg free base per kg, respectively (dose volume: 5 or 10 mL kg^−1, dose vehicle: 5 % DMSO, 40 % PEG400, 55 % distilled H2O) to female NMRI mice (n=3). Compounds 28, 38, and 56 were dosed as a bolus solution intraperitoneally at 10 (56) or 20 (28 and 38) mg free base per kg (dose volume: 10 mL kg^−1, dose vehicle: 5 % DMSO, 40 % PEG400, 55 % sterile H2O) to female NMRI mice (n=3). Female NMRI mice were chosen, as these represent the sex and strain used for the stage-1 and stage-2 HAT efficacy models. Blood samples were taken from each mouse at 5 (i.p. only), 15 and 30 min, 1, 2, 4, 6 and 8 h post-dose and mixed with two volumes of distilled H2O. After suitable sample preparation, the concentration of each compound in blood was determined by UPLC–MS/MS using a Quattro Premier XE (Waters, USA). Pharmacokinetic parameters were derived from the mean blood concentration time curve using PKsolutions software ver. 2.0 (Summit Research Services, USA).

A further series concerns the target PRK2 (Homo sapiens, UniProt Q16513). The experiment in a line: Kinase panel: PRK2. It is filed as biochemical, human/mammalian. The following applies: compound at 10 μM, read-out: % of activity respect of the control. How it is done:
(§1) The DDU kinase-focused compound set contains lead-like scaffolds that are designed to target protein kinases; they have kinase hinge binding motifs. Four of the 1H-imidazopyrazinones were screened against a human/mammalian kinase panel at the University of Dundee (http://www.kinase-screen.mrc.ac.uk) at a concentration of 10 μM. At the time of testing the panel contained 79 mammalian kinases selected to provide a broad coverage of the mammalian kinome (∼500 kinases in the human genome).[3] None of the compounds were active against any of the kinases at 10 μM.

The target of another series is MAPKAP-K2 (Homo sapiens, UniProt P49137). Description: Kinase panel: MAPKAP-K2. The series is classed as biochemical, human/mammalian. The following applies: compound at 10 μM, read-out: % of activity respect of the control. On the procedure: as §1
Another series addresses PIM1 (Homo sapiens, UniProt P11309). Description: Kinase panel: PIM1. The series is classed as biochemical, human/mammalian. To be noted: compound at 10 μM, read-out: % of activity respect of the control. On the procedure: as §1
The target of another series is VEG-FR (Homo sapiens, UniProt P17948). Description: Kinase panel: VEG-FR. It is filed as biochemical, human/mammalian. The following applies: compound at 10 μM, read-out: % of activity respect of the control. On the procedure:
as §1

For the next series, the target named is T1, EPH-B3 (Homo sapiens, UniProt P54753).
T1 sequence (P54753 34-998): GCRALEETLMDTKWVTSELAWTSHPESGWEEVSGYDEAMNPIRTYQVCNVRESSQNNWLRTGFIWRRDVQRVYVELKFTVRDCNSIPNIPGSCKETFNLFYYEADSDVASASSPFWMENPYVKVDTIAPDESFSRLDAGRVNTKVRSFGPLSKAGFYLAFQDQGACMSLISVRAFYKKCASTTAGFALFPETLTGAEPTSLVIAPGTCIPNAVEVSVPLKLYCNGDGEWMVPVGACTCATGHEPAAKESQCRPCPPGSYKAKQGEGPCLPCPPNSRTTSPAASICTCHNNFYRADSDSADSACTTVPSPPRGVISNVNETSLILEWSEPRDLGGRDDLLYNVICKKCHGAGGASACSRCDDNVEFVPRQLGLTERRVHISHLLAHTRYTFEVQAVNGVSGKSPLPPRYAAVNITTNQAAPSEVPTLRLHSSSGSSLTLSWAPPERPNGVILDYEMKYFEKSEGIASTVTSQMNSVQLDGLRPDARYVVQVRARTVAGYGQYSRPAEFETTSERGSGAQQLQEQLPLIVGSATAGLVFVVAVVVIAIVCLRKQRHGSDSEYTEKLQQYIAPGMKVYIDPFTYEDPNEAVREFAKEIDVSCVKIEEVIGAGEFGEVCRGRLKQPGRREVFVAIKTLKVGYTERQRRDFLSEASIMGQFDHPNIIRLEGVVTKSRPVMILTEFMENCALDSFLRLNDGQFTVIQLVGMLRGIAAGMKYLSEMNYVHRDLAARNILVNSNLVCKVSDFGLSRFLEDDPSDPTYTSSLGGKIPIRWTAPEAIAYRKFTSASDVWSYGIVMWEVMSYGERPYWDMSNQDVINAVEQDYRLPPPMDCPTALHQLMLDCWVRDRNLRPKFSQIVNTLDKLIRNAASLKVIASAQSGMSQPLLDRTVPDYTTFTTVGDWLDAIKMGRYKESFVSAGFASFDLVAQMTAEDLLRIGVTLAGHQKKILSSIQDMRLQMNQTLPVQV
Description: Kinase panel: EPH-B3. It is filed as biochemical, human/mammalian. To be noted: compound at 10 μM, read-out: % of activity respect of the control. How it is done: as §1

The mark [3] stands for this setting: po, 5 mg kg^−1, female NMRI mice.
Where [4] appears, read: ip, 20 mg kg^−1, female NMRI mice.
[5] abbreviates: po, 20 mg kg^−1, female NMRI mice.

Sequence of PIM1 (P11309 whole entry): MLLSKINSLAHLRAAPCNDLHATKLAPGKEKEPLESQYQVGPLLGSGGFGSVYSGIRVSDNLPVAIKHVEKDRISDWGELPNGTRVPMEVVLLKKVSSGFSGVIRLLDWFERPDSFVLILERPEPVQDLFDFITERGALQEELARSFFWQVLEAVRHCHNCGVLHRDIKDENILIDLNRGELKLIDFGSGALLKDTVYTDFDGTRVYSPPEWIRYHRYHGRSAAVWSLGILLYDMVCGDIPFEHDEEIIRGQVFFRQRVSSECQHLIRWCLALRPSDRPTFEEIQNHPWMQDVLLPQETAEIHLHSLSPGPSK
Sequence of VEG-FR (P17948 27-1338): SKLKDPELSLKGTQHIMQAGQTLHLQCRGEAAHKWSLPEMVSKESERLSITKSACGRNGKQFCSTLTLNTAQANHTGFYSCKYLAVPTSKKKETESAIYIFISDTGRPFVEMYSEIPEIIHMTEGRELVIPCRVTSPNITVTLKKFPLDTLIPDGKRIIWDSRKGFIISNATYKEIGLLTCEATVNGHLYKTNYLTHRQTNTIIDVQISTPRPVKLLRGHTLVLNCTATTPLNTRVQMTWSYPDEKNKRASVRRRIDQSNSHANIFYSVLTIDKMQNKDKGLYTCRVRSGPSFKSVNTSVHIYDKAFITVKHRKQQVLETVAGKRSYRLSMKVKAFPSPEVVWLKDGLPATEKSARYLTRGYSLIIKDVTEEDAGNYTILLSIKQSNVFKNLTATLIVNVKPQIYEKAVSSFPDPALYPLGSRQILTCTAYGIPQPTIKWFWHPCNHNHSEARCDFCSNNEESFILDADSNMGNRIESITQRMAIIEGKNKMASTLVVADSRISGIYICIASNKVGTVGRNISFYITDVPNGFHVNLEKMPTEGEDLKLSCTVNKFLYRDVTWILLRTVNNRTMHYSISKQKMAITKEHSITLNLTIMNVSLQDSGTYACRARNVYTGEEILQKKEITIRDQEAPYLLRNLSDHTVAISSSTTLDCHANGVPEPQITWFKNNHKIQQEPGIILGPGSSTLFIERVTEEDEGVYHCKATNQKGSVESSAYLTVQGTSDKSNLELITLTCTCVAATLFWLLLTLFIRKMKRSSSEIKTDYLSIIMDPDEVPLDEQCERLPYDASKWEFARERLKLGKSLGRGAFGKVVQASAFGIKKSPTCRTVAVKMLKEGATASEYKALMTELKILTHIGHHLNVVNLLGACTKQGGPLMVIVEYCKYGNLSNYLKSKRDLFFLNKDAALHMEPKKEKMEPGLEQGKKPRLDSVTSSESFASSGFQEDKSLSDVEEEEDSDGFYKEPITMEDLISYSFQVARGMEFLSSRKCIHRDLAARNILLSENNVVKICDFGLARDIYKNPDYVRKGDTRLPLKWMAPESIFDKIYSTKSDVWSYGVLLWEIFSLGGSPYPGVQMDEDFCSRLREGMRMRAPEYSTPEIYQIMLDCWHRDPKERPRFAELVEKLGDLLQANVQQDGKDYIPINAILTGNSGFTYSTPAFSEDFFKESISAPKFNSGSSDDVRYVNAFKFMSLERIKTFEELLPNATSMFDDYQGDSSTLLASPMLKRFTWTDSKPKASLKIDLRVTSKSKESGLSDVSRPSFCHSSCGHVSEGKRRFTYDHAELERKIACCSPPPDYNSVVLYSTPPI
Sequence of PRK2 (Q16513 whole entry): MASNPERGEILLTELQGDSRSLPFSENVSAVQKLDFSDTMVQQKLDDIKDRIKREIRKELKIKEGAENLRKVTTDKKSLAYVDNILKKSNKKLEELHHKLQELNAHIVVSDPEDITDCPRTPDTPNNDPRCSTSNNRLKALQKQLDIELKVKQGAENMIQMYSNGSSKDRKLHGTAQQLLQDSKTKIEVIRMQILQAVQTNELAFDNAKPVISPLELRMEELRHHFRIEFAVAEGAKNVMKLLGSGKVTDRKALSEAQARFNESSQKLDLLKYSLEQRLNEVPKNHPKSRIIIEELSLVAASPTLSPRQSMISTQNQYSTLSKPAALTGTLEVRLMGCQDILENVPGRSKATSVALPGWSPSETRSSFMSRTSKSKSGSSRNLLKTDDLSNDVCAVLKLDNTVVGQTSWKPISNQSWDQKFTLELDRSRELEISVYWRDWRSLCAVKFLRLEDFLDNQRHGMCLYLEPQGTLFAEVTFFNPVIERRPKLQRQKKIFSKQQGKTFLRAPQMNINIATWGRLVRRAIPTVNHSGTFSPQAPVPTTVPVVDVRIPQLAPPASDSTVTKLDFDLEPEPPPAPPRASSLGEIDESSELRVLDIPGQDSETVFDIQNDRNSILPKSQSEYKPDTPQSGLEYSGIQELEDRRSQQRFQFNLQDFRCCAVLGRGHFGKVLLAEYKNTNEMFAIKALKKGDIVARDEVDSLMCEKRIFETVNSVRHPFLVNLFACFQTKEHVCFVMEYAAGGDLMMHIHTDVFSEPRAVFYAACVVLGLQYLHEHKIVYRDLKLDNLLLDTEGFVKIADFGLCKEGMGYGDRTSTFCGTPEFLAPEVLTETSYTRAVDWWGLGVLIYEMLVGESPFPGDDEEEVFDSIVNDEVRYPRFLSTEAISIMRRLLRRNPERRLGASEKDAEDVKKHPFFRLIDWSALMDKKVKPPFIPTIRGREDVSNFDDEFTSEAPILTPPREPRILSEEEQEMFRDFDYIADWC
Sequence of MAPKAP-K2 (P49137 whole entry): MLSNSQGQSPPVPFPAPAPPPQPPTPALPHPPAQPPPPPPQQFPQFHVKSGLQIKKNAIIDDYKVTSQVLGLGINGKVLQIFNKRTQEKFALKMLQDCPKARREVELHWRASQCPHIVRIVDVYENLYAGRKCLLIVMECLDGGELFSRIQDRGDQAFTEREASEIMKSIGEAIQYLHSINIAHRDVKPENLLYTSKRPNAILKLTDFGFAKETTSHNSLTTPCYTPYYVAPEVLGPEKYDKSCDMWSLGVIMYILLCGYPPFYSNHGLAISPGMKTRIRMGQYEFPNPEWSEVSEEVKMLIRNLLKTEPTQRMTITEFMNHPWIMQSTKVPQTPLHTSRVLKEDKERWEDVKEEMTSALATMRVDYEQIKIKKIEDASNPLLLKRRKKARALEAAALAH

Usually Tmax stands for the time at which the peak concentration occurs. The term Cmax denotes the peak of the concentration-time curve. As usually defined, the half-life is the time in which the quantity being followed falls by half. Low readings indicate rapid decline, high ones slow decline. On to `CC(c1ccccc1)n1c(=O)[nH]c2ncc(-c3ccc(F)cc3)nc21` (stereo not shown) [Compound 1], for which the “protein binding (unbound)” value in series [1] is 0.3 % unbound. Further, in series [2] (po, 5 mg/kg, 5 mg kg^−1, female NMRI mice), the Tmax is about 2 h. Further, in series [2] (setting [3]), the Cmax stood at 110 ng/mL. This compound gave a half-life in series [2] (setting [3]) of 3 h. The AUC(0-t) in series [2] (setting [3]) was 600 ng·h/mL. Further, the remaining activity at 10 µM at PRK2 was 111%; at MAPKAP-K2 it was 90%; at PIM1, 80%; at VEG-FR it was 117%; on EPH-B3, 113%.

Take `O=c1[nH]c2ncc(-c3ccc(F)cc3)nc2n1CC1CC1` [Compound 10]: the remaining activity at 10 µM came to 99% on PRK2; 104% on MAPKAP-K2; 79% at PIM1; 98% on VEG-FR; 92% at EPH-B3.

Take `O=c1[nH]c2ncc(-c3ccc(F)cc3)nc2n1C1CCCCC1` [Compound 12, 1-Cyclohexyl-6-(4-fluorophenyl)-1H-imidazo[4,5-b]pyrazin-2(3H)-one]: the remaining activity at 10 µM on PRK2 is 112%; on MAPKAP-K2, 101%; at PIM1 it was 82%; at VEG-FR it was 107%; on EPH-B3 it was 110%.

With `C[C@H](c1ccccc1)n1c(=O)[nH]c2ncc(-c3ccccc3)nc21` [Compound 14, (R)-6-Phenyl-1-(1-phenylethyl)-1H-imidazo[4,5-b]pyrazin-2(3H)-one], the remaining activity at 10 µM at PRK2 stood at 97%; on MAPKAP-K2, 84%; at PIM1 it was 72%; on VEG-FR it was 73%; at EPH-B3, 102%.

With `O=c1[nH]c2ncc(-c3ccccc3CO)nc2n1C1CCCCC1` [Compound 28], the fraction unbound at 5 h, 10 μg g^−1 in series [1] (female, CD1, equilibrium dialysis, read-out: PPB) turned out to be 0.072. The “protein binding (unbound)” value in series [1] was 7.2 % unbound. For the same compound, the PPB in series [1] (equilibrium dialysis) amounted to 7.2 % free. Further, in series [2] (dosed orally, 20 mg kg^−1), the “time to reach Cmax” value is on record as 15 min. The time of peak concentration (Tmax) in series [2] (ip, 20 mg/kg, 20 mg kg^−1, female NMRI mice) was 0.083 h; in series [2] (po, 20 mg/kg, 20 mg kg^−1, female NMRI mice), 0.25 h. Moreover, the figures for the Cmax in series [2] (setting [4]) and in series [2] (setting [5]) were 5200 ng/mL and 910 ng/mL, respectively. For the same compound, the half-life in series [2] (setting [4]) is 1.2 h; in series [2] (setting [5]), 1.7 h. Besides, the AUC(0-t) in series [2] (setting [4]) was 3830 ng·h/mL; in series [2] (setting [5]), 1150 ng·h/mL.
